In US20250387378A1, “METHODS AND COMPOSITIONS FOR PREVENTING SKIN TOXICITIES CAUSED BY BIOLOGICAL TARGETED CANCER DRUGS” (Hadasit Medical Research Services & Development Limited, priority 2019, published 2025):
“Also recorded” adds a separate entry of the source. Counter-ions that a name gives are not always drawn. One block for each compound: values may come before it.

How the values were obtained:
HaCaT keratinocytes = experiment: percent survival of HaCaT keratinocytes with trametinib plus sn8; type: cell-based, human; conditions: added to trametinib, FIG. 9B
keratinocytes = experiment: percent live keratinocytes after adding sn molecules to erlotinib and gefitinib; type: cell-based; conditions: added to erlotinib and gefitinib, FIG. 9B
[1] = tested on: phosphorylated EGFR receptor; experiment: p-EGFR level by flow cytometry, A431 cells treated with EGF and cetuximab; type: cell-based; conditions: for effect on p-EGFR expression (in words): A431 cells treated with cetuximab, 5 uM compound; for activated levels of p-EGFR: A431 cells, 20 minutes, EGF, cetuximab and 5 uM compound
Experimental: (§1) The level of phosphorylated EGFR receptor was measured in cell lines by flow cytometry.

EGFR [2] = target: T1, EGFR (Homo sapiens, UniProt P00533); experiment: ELISA, blocking of cetuximab binding to EGFR; conditions: for blocking of cetuximab binding to EGFR (in words): ELISA
[3] = tested on: HaCaT and A431 cell lines; experiment: MTT proliferation assay with bispecific EGFRi; type: cell-based; conditions: keratinocyte cell lines
Experimental: (§2) The efficacity of SDT-011 efficacy in preventing bispecific EGFRi binding to recombinant human EGFR (rhEGFR) was evaluated. ELISA was used to assess binding inhibition, while MTT assays in HaCaT and A431 cell lines measured the reversal of EGFR inhibition on keratinocyte cell line proliferation, and flow cytometry quantified EGFR expression on the cell surface. Additionally, in silico docking experiments provided insights into SDT-011's mechanism of action in blocking amivantamab, petosemtamab, and izalontamab.

[4] = target: recombinant human EGFR (rhEGFR) (Homo sapiens, UniProt P00533); experiment: ELISA, inhibition of bispecific EGFRi antibody binding to rhEGFR
Experimental: as §2

EGFR [5] = target: T1, EGFR; experiment: flow cytometry of EGFR expression on the cell surface with bispecific EGFRi; type: cell-based
Experimental: as §2

[6] = tested on: phosphorylated EGFR receptor; experiment: p-EGFR level by flow cytometry, HaCaT cells treated with EGF and cetuximab; type: cell-based, human; conditions: for effect on p-EGFR expression (in words): HaCaT cells treated with cetuximab, 5 uM compound
Experimental: (§3) The novel approach proposed by the invention is to specifically target and block the effect of the anti-neoplastic biological targeted agents in the skin.
as §1

HaCaT cells [7] = experiment: annexin-V/PI flow cytometry, erlotinib induced death in HaCaT cells; type: cell-based, human; conditions: erlotinib alone, 72 hours
Experimental: To test if ATP analogues can protect keratinocyte from erlotinib induced death we treated HaCaT cells with erlotinib alone and with erlotinib+5 uM ATP analogue for 72 hours. Apoptosis and cell death were evaluated by annexin-V and propidium-iodide (PI) labeling, followed by flow cytometry. […] B) bar graph depicting percent dead HaCaT cells with the different treatment conditions.

A431 cells [8] = experiment: annexin-V/PI flow cytometry, cetuximab induced cell death in A431 cells; type: cell-based
Experimental: (§4) Apoptosis and cell death were evaluated by annexin-V and propidium-iodide (PI) labeling, followed by flow cytometry.

A431 cells [9] = experiment: annexin-V/PI flow cytometry, panitumumab induced death in A431 cells; type: cell-based; conditions: 72 hours
Experimental: Apoptosis and cell death were evaluated by annexin-V and propidium-iodide (PI) labeling, followed by flow cytometry. The experiments show improved cell viability of A431 cells treated with G-4 and E-3 compounds with panitumumab as compared to panitumumab alone. A) flow cytometry of one representative experiment showing elevation of percentage of live cells from 18% live cells after panitumumab alone verses 40% live cells with panitumumab and G-4 compound and 42% live cells with E-3 compound and panitumumab treatment. B) bar graph depicting percent live A431 cells with the different treatment conditions.

[10] = Franz chamber skin penetration; type: in vitro ADME, human; conditions: FIG. 12
Excerpt: The inventors designed and fabricated solidified polymer micelles composed of linear […] (PEG-PLA) of ˜20 nm, which was previously shown to have stability and ability to penetrate cells efficiently.

EGFR [11] = target: T1, EGFR; experiment: blocking of panitumumab (vectibix) binding to EGFR; conditions: FIG. 3
HaCaT cells [12] = experiment: annexin-V/PI flow cytometry, cetuximab induced cell death in HaCaT cells; type: cell-based, human
Experimental: as §3, §4

[13] = G-4 added to cetuximab treatment, 72 hours, one representative experiment
[14] = cetuximab + 0.5 uM and 5 uM G-4, 72 hours
[15] = panitumumab + compound (0.5 uM and 5 uM)

Compound: Nc1ccc(OCc2ccccn2)c(Cl)c1 [sn8]
percent survival of HaCaT keratinocytes (in words) (HaCaT keratinocytes): improved percent survival of HaCaT keratinocytes
percent live keratinocytes (in words) (keratinocytes): improved percent live keratinocytes

Compound: CC(=O)Nc1ccc(F)c(Cl)c1 [sn7]
percent live keratinocytes (in words) (keratinocytes): improved percent live keratinocytes

Compound: O=C(CN1C(=O)c2ccccc2C1=O)Nc1cccc(Cl)c1 [sn9]
percent live keratinocytes (in words) (keratinocytes): improved percent live keratinocytes

Compound: N#Cc1cc(N)ccc1F [sn6]
percent live keratinocytes (in words) (keratinocytes): improved percent live keratinocytes

inhibition of amivantamab binding to EGFR (in words) ([4]; FIG. 17 panel A): effectively inhibited the binding
inhibition of petosemtamab binding to EGFR (in words) ([4]; FIG. 17 panel B): effectively inhibited the binding
inhibition of izalontamab binding to EGFR (in words) ([4]; FIG. 17 panel C): effectively inhibited the binding
total EGFR (tEGFR) expression / receptor internalization by amivantamab (in words) (EGFR [5]; FIG. 18 panel A): stabilizes total EGFR (tEGFR) expression
total EGFR (tEGFR) expression / receptor internalization by petosemtamab (in words) (EGFR [5]; FIG. 18 panel B): stabilizes total EGFR (tEGFR) expression
total EGFR (tEGFR) expression / receptor internalization by izalontamab (in words) (EGFR [5]; FIG. 18 panel C): stabilizes total EGFR (tEGFR) expression
Compound: Cc1ccc(-c2cc(C(F)(F)F)c3c(N)c(C#N)sc3n2)cc1 [LW11]
effect on p-EGFR expression (in words) [1]: increase p-EGFR expression
activated levels of p-EGFR [1]: ~30%
blocking of cetuximab binding to EGFR (in words) (EGFR [2]): dose-dependent manner; also recorded: block cetuximab's binding to EGFR
antiproliferative effects induced by amivantamab (in words) ([3]; FIG. 18 panel D): reversal of the antiproliferative effects
antiproliferative effects induced by petosemtamab (in words) ([3]; FIG. 18 panel E): reversal of the antiproliferative effects
antiproliferative effects induced by izalontamab (in words) ([3]; FIG. 18 panel F): reversal of the antiproliferative effects
effect on p-EGFR expression (in words) [6]: increase p-EGFR expression
activated levels of p-EGFR ([6]; HaCaT cells, 20 minutes, EGF, cetuximab and 5 uM compound): up to 46%

Compound: C#Cc1cccc(Nc2ncnc3cc(OCCOC)c(OCCOC)cc23)c1 [erlotinib]
dead cells (HaCaT cells [7]): 13.5%

blocking of binding of cetuximab to EGFR (EGFR [2]; screening plate, FIG. 2A): 42%
penetration through full human skin (in words) [10]: does not penetrate full human skin
blocking of panitumumab (vectibix) binding to EGFR (in words) (EGFR [11]): block the binding
Compound: CC(=O)c1sc2nc(-c3cccnc3)cc(C(F)F)c2c1N [G4, 1-[3-amino-4-(difluoromethyl)-6-(3-pyridinyl)thieno[2,3-b]pyridin-2-yl]ethanone]
live cells (A431 cells [8]; [13]): 54.5%
average improvement of viability against cetuximab induced cell death (A431 cells [8]; [14]): more than 50%
effect on p-EGFR expression (in words) [1]: increase p-EGFR expression
activated levels of p-EGFR [1]: ~30%
live cells (A431 cells [9]; [15]): 40%
blocking of cetuximab binding to EGFR (in words) (EGFR [2]): blocking of cetuximab binding to EGFR; also recorded: dose-dependent manner; also recorded: block cetuximab's binding to EGFR
live cells (HaCaT cells [12]; [13]): 64%
average improvement of viability against cetuximab induced cell death (HaCaT cells [12]; [14]): 30%
effect on p-EGFR expression (in words) [6]: increase p-EGFR expression

Compound: Cc1cc(Cl)cc(N)c1N [E3, (2-amino-4-chloro-6-methylphenyl)amine hydrochloride]
live cells (A431 cells [9]; [15]): 42%
blocking of cetuximab binding to EGFR (in words) (EGFR [2]; hydrochloride): blocking of cetuximab binding to EGFR; also recorded: dose-dependent manner
blocking of panitumumab (vectibix) binding to EGFR (in words) (EGFR [11]): block the binding

Compound: panitumumab: human monoclonal antibody specific to the epidermal growth factor receptor [reference compound]
live cells (A431 cells [9]; panitumumab alone): 18%
